# Test results from patent publication US9603831B2, “Artemisinin and its derivatives for use in the treatment of kidney disease” (Queen Mary & Westfield College, University of London, priority 2012, dated 2017).
# Legend:
# Assay type in all cases: in vivo
# [1] = system: rats subjected to burn injury; experiment: Organ injury and dysfunction induced by burn injury in the rat; conditions: 3 mg/kg i.v. 30 min prior to and 30 min after burn injury, 6 h after burn
# Method: Twenty-two male Wistar rats (Harlan, Udine, Italy) weighing 300 to 350 g were anaesthetised with sodium pentobarbital (Eutasil™, 60 mg/kg i.p.; Sanofi Veterinária, Algés, Portugal), which was supplemented as required. Anaesthetised rats were shaved (dorsum and abdomen) and placed onto a thermostatically controlled heating mat (Harvard Apparatus Ltd, Kent, U.K.) and body temperature maintained at 37±1° C. by means of a rectal probe attached to a homeothermic blanket. A tracheotomy was performed to maintain airway patency and to facilitate spontaneous respiration. Thirty minutes prior to burn injury, rats were treated with vehicle or drug, as described in section 3.2. To induce burn injury, a 60% third degree skin burn was induced by immersing dorsal shaved skin in 99° C. water for 10 s using a synthetic foam template. The rats were then dried and placed over the heating mat. Rats were sacrificed at 6 hours after burn injury by overdose of the anaesthetic and serum samples obtained for analysis of organ injury and dysfunction. Rats were randomly allocated into the following groups: • (i) Sham (n=4) • (ii) Burn+10% DMSO (n=10) • (iii) Burn+Artesunate (n=9) Sham-operated rats underwent identical surgical procedures but without burn injury (immersed in room temperature water). Animals received either 10% DMSO (1 ml/kg i.v.) or artesunate (3 mg/kg i.v.) 30 min prior to burn injury and 30 min after burn injury Each data point represents measurements obtained from up to 10 separate animals. Data was assessed using Mann-Whitney U test.
# [2] = system: rats subjected to haemorrhagic shock; experiment: Organ injury and dysfunction induced by trauma haemorrhage (haemorrhagic shock) in the rat; conditions: for rise in serum creatinine / rise in serum urea: 4 h after resuscitation; for rise in serum creatinine / rise in serum urea / rise in serum ALT / rise in serum AST / rise in serum creatinine kinase: vs HS-rats; for decline in MAP caused by haemorrhage during the resuscitation phase: vs HS Control
# Method: Thirty-five male Wistar rats (271±5 g) were anaesthetised with sodium thiopentone (120 mg/kg i.p., LINK Pharmaceuticals Ltd., West Sussex, UK) and anaesthesia was maintained by supplementary injections (˜10 mg/kg i.v.) of sodium thiopentone as and when required. The animals were placed onto a thermostatically controlled heating mat (Harvard Apparatus Ltd., Kent, UK) and body temperature was maintained at 37±1° C. by means of a rectal probe attached to a homeothermic blanket. A tracheotomy was performed by inserting into the lumen of the trachea a small length of polyethylene tubing [Internal Diameter (ID) 1.67 mm, Portex, Kent, UK] to maintain airway patency and facilitate spontaneous respiration. […] The right carotid artery was cannulated (ID 0.58 mm, Portex) to facilitate the withdrawal of blood using a heparinised syringe. The right jugular vein was cannulated (ID 0.40 mm, Portex) for the administration of Ringer's Lactate (RL), shed blood, test compounds and/or vehicle. The bladder was also cannulated (ID 0.76 mm, Portex) for the collection of urine. Upon completion of the surgical procedure, cardiovascular parameters were allowed to stabilise for a period of 15 min.
# After the stabilisation period, blood was withdrawn via the cannula inserted in the right carotid artery in order to achieve a fall in MAP to 35±5 mmHg within 10 min. From this point onwards, MAP was maintained at 35±5 mmHg for a period of 90 min either by further withdrawal of blood during the compensation phase (MAP rises following blood withdrawal due to sympathetic response) or administration of Ringer's Lactate i.v. during the decompensation phase (animals are unable to increase and maintain high MAP). […] At 90 min after initiation of haemorrhage, resuscitation was performed with 20 ml/kg Ringer's Lactate i.v. over a period of 10 min and then half the shed blood mixed with 100 u/ml heparinised saline i.v. over a period of 50 min. At the end of 1 h resuscitation, an i.v. infusion of Ringer's Lactate (1.5 ml/kg/h) was started as fluid replacement and maintained for a further 3 h.
# Four hours after the onset of resuscitation, 1.2 ml blood was collected from the right carotid artery and decanted into serum gel tubes (Sarstedt, Numbrecht, Germany), after which the heart was removed to terminate the experiment. The samples were centrifuged (9900 rpm for 3 min) to separate serum from which urea, creatinine, aspartate aminotransferase (AST), alanine aminotransferase (ALT) and creatinine kinase (CK) were measured within 24 hours (Idexx Laboratories Ltd., West Yorkshire, UK). Urine collected during the last 3 h of the experiment was analysed for creatinine levels in order to estimate creatinine clearance as an indicator of glomerular dysfunction and was calculated as follows:
# [formula] 1.4 Experimental Design
# Rats were randomly allocated into the following groups: • (i) Sham (n=4) • (ii) HS Control (n=10) • (iii) HS+Artesunate 1 mg/kg (n=6) • (iv) HS+Artesunate 3 mg/kg (n=7) • (v) HS+Artesunate 10 mg/kg (n=8)
# Sham-operated rats underwent identical surgical procedures but without haemorrhage or resuscitation. Animals received either 10% DMSO (1 ml/kg i.v.) or artesunate (1, 3 or 10 mg/kg i.v.) on resuscitation.
# All values described in the text and figures are expressed as mean±standard error of the mean (SEM) for n observations. Each data point represents biochemical measurements obtained from up to 10 separate animals. Statistical analysis was carried out using GraphPad Prism 5.03 (GraphPad Software, San Diego, Calif., USA). Data without repeated measurements was assessed by one-way ANOVA followed by Dunnett's post hoc test. Data with repeated measurements was assessed by two-way ANOVA followed by Bonferroni's post hoc test. A P value of less than 0.05 was considered to be significant.
# [3] = system: rats subjected to unilateral renal ischaemia/reperfusion; experiment: Late administration in a recovery rat model of unilateral renal ischaemia/reperfusion injury; conditions: 0.3 mg/kg i.v. 24 h into reperfusion, measured at 48 h reperfusion, mean±SEM, P<0.05
# Method: Thirty-one male Wistar rats (240-270 g, Charles River, Margate, U.K.) were used in this study. Rats were anaesthetised with a ketamine (100 mg/ml) and xylazine (20 mg/ml) mixture (2:1; 1.5 ml/kg, i.p.) and anaesthesia was maintained by supplementary injections (200 μg/kg i.p.) of ketamine/xylazine. Buprenorphine was administered at a dose of 0.1 mg/kg s.c. (0.5 ml/kg). Rats were then, placed onto a thermostatically controlled heating mat (Harvard Apparatus Ltd., Kent, U.K.) set at 37° C. A midline laparotomy was then performed. The anatomical right kidney was removed following permanent ligation of the renal artery and vein. The left renal pedicle (consisting of the renal artery, vein and nerve) was isolated and clamped using a non-traumatic microvascular clamp at time 0 for 30 min. Body temperature was maintained at 35±1° C. during ischaemia by means of measuring rectal temperature with a thermometer. After 30 min of unilateral renal ischaemia, the clamp was removed to allow reperfusion for 48 h. […]
# Following the reperfusion period, ˜3.5 ml of blood was taken from the right ventricle of the heart via cardiac puncture into non-heparinised 5 ml syringes and immediately decanted into 1.3 ml serum gel tubes (Sarstedt, Germany). […] All biochemical markers in serum and urine were measured in a blinded fashion by a commercial veterinary testing laboratory (IDEXX Ltd, West Sussex, UK). […] Creatinine clearance is used as an indicator of glomerular dysfunction and is calculated as follows
# Fractional excretion of sodium is used as an indicator of tubular dysfunction and is calculated as follows: […]
# All data in the text and figures are presented as mean±SEM of n observations, where n represents the number of animals studied. All statistical analysis was calculated using GraphPad Prism 6 (GraphPad Software, San Diego, Calif., USA). Biochemical data was analysed by one-way ANOVA for data representing more than two groups, followed by a Dunnett's post hoc test for comparison of sham/treated groups with the control vehicle. […]
# [4] = 1 mg/kg i.v. on resuscitation, P>0.05
# [5] = 3 mg/kg i.v. on resuscitation, P<0.005
# [6] = 3 mg/kg i.v. on resuscitation, P<0.05
# [7] = 10 mg/kg i.v. on resuscitation, P<0.005
# [8] = 10 mg/kg i.v. on resuscitation, P<0.05
compound,measurement,setting,value
C[C@H]1[C@H](OC(=O)CCC(=O)O)O[C@@H]2O[C@@]3(C)CC[C@H]4[C@H](C)CC[C@@H]1[C@@]24OO3 [artesunate],rise in serum ALT,[1]; P>0.05,no significant effect
same,rise in serum AST,[1]; P>0.05,no significant effect
same,rise in serum creatinine,"[1]; vs burn + vehicle, P<0.05",significantly attenuated
same,rise in serum urea,"[1]; vs burn + vehicle, P<0.05",significantly attenuated
same,rise in serum creatinine,[2]; [4],no significant effect
same,rise in serum urea,[2]; [4],no significant effect
same,decline in MAP caused by haemorrhage during the resuscitation phase,[2]; [4],failed to attenuate
same,rise in serum ALT,[2]; [4],no significant effect
same,rise in serum AST,[2]; [4],no significant effect
same,rise in serum creatinine kinase,[2]; [4],no significant effect
same,rise in serum creatinine,[2]; [5],significantly attenuated
same,rise in serum urea,[2]; [6],significantly attenuated
same,decline in MAP caused by haemorrhage during the resuscitation phase,"[2]; 3 mg/kg i.v. on resuscitation, P>0.05",failed to attenuate
same,rise in serum ALT,[2]; [5],significantly attenuated
same,rise in serum AST,[2]; [6],significantly attenuated
same,rise in serum creatinine kinase,[2]; [6],significantly attenuated
same,rise in serum creatinine,[2]; [7],significantly attenuated
same,decline in MAP caused by haemorrhage during the resuscitation phase,"[2]; 10 mg/kg i.v. on resuscitation, P>0.05",failed to attenuate
same,rise in serum ALT,[2]; [7],significantly attenuated
same,rise in serum AST,[2]; [8],significantly attenuated
same,rise in serum creatinine kinase,[2]; [8],significantly attenuated
same,fractional excretion of sodium,[3]; IRI+Vehicle 4.45±0.65,1.90±0.17%
same,serum urea,[3]; IRI+Vehicle 34.13±2.23,21.63 ± 1.51 mmol/L
same,serum creatinine,[3]; IRI+Vehicle 205.90±22.23,115.4 ± 9.72 µmol/L
